Laboratory results from patent US8765747B2, “Fused 2-aminothiazole compounds” (Dana-Farber Cancer Institute, Inc., priority 2009, dated 2014).

Columns and labels:
32D-BCR-Abl-T3151 = experiment: Cell cycle analysis; assay type: cell-based, murine; conditions: 24 hours of treatment
Text: (§1) Ba/F3.p210 cells were obtained by transfecting the IL-3-dependent marine hematopoietic Ba/F3 cell line with a pGD vector containing p210BCR-ABL (B2A2) cDNA (Daley and Baltimore, 1988; Sattler et al., 1996; Okuda et al., 1996). Murine hematopoietic 32D cells were transduced with retrovirus to express p210 Bcr-ABL (32D.p210 cells) (Matulonis et al., 1993); the 32D-T315I cell line was transfected by electroporation with the imatinib resistant BCR-ABL construct (pCI-neo Mammalian Expression Vector; Promega (#E1841) harboring the point mutation T315I (Weisberg et al., 2005). Ba/F3 cells were stably transfected by electroporation with imatinib-resistant BCR-ABL constructs (pCI-neo Mammalian Expression Vector; Promega (#E1841) harboring the point mutations T315I, F317L, F486S, and M351T; transfectants were selected for neomycin resistance and IL-3-independent growth (Weisberg et al., 2005). Ba/F3 cells were stably transfected by electroporation with BCR-ABL point mutants identified in a random mutagenesis screen for BCR-ABL point mutants conferring resistance to nilotinib: Q252H, E292K, Y253C, Y253H, E255K, and V289L (Ray et al., 2007). Ba/F3 cells were made to express Tel-PDGFRβ as described by Golub et al., 1994, and Carroll et al., 1996. Constructs of D842V-PDGFRα and V561D-PDGFRα cDNA cloned into pcDNA3.1 were stably transfected into Ba/F3 cells by electroporation, and cells were selected for neomycin resistance and IL3-independent growth as described by Weisberg et al., 2006.
(§2) All cell lines were cultured with 5% CO2 at 37° C. in RPMI (Mediatech, Inc., Herndon, Va.) with 10% fetal calf serum (FCS) and supplemented with 1% L-glutamine. Parental Ba/F3 cells were similarly cultured with 15% WEHI-conditioned medium as a source of IL-3. Transfected cell lines were cultured in media supplemented with 1 mg/ml G418.
(§3) Cell cycle analysis was performed using approximately 500,000 cells, which were centrifuged at 1500 rpm for 5 min, washed in PBS, and the pellet re-suspended in 500 μl of propidium iodide solution (50 μg/ml propidium iodide, 0.1% NP-40, 0.1% sodium citrate). The mixture was stored in the dark at 4° C. for a minimum of 15 min, and then analyzed by flow cytometry. Apoptosis of drug-treated cells was measured using the Annexin-V-Fluos Staining Kit (Boehringer Mannheim, Indianapolis).

32D-BCR-Abl = experiment: Cell cycle analysis; assay type: cell-based, murine; conditions: 24 hours of treatment
Text: as §1, §2, §3

Ba/F3-Y253C = experiment: Relative IC50 in BCR-Abl-expressing cell line; assay type: cell-based, murine; conditions: Mus musculus, 2.5-3 days, read-out: Relative IC50 range
Experimental: (§4) All compounds were initially dissolved in DMSO to make 10 mM stock solutions, and then were serially diluted to obtain final concentrations for in vitro experiments.
as §1, with “Ba/F3 cells were made to express Tel-PDGFRβ as described by Golub et al., 1994, and Carroll et al., 1996. Constructs of D842V-PDGFRα and V561D-PDGFRα cDNA cloned into pcDNA3.1 were stably transfected into Ba/F3 cells by electroporation, and cells were selected for neomycin resistance and IL3-independent growth as described by Weisberg et al., 2006.” left out

Ba/F3-kit-T6701 = experiment: Cell cycle analysis; assay type: cell-based, murine; conditions: 24 hours of treatment
Experimental: as §2, §3

Ba/F3-PDGFRα-T674M = experiment: Cell cycle analysis; assay type: cell-based, murine; conditions: 24 hours of treatment
Experimental: as §2, §3

Ba/F3-PDGFRα-T674I = experiment: Cell cycle analysis; assay type: cell-based, murine; conditions: 24 hours of treatment
Experimental: as §2, §3

Ba/F3-PDGFRβ-T681I = experiment: Relative IC50 in PDGFR-expressing cell line; assay type: cell-based, murine; conditions: Mus musculus, 2.5-3 days, read-out: Relative IC50 range
Experimental: as §4, §2

HIPK1 = HIPK1 (Homo sapiens (Human), UniProt Q86Z02); experiment: KINOMEscan competition binding assay
Chain of HIPK1 (Q86Z02 whole entry): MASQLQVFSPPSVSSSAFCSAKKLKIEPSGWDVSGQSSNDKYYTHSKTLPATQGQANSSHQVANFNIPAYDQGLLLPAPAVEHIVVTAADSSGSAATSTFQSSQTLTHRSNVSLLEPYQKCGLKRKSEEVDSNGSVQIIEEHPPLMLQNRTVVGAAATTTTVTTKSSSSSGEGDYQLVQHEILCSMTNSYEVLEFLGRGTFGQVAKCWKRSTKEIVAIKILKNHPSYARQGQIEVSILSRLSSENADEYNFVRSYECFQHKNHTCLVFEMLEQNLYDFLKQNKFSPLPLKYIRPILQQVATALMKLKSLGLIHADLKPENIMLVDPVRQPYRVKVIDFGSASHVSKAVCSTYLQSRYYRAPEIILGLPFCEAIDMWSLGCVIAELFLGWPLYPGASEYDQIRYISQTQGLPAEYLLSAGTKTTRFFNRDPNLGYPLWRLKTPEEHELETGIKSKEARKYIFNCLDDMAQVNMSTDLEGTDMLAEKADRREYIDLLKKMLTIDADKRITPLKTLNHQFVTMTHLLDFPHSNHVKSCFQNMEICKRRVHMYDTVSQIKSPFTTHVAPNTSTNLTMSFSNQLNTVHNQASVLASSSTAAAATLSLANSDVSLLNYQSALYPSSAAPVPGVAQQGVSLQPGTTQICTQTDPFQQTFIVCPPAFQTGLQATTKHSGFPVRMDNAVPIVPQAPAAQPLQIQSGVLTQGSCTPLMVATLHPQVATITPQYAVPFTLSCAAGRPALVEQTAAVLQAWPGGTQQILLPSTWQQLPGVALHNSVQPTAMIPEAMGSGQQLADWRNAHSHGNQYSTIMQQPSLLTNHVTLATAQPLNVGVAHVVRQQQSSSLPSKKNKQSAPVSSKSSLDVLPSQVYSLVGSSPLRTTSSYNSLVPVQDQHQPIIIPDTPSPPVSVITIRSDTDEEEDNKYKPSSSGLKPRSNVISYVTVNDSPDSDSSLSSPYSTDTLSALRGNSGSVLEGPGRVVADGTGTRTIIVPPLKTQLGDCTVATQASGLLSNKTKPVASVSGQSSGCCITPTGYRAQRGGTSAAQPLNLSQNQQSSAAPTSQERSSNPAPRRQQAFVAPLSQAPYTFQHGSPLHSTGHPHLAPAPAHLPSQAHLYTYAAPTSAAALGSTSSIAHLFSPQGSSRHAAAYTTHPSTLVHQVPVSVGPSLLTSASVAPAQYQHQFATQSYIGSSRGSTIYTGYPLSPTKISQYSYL
Experimental: (§5) KINOMEscan™ (Ambit Biosciences, San Diego, Calif.), a high-throughput method for screening small molecular agents against a large panel of human kinases, was utilized for compound 2.
(§6) Kinases where significant binding affinity was detected at 10 μM were retested in dose-response format to determine a dissociation constant. The size of the red circle is proportion to Kd. […] The compound binds in the “DFG-out” conformation as evident by the position of F405. Ample space is available adjacent to the gatekeeper residue T338 providing a rationale for the tolerance for a larger amino acid at this position.

CDK2 = CDK2 (Homo sapiens (Human), UniProt P24941); experiment: KINOMEscan competition binding assay
Experimental: as §5, §6

p38-gamma = p38-gamma (Homo sapiens (Human), UniProt P53778); experiment: KINOMEscan competition binding assay
Experimental: as §5, §6

KIT = KIT (Homo sapiens (Human), UniProt P10721); experiment: KINOMEscan competition binding assay
Experimental: as §5, §6

FLT1 = FLT1 (Homo sapiens (Human), UniProt P17948); experiment: KINOMEscan competition binding assay
Experimental: as §5, §6

BRAF = BRAF (Homo sapiens (Human), UniProt P15056); experiment: KINOMEscan competition binding assay
Chain of BRAF (P15056 whole entry): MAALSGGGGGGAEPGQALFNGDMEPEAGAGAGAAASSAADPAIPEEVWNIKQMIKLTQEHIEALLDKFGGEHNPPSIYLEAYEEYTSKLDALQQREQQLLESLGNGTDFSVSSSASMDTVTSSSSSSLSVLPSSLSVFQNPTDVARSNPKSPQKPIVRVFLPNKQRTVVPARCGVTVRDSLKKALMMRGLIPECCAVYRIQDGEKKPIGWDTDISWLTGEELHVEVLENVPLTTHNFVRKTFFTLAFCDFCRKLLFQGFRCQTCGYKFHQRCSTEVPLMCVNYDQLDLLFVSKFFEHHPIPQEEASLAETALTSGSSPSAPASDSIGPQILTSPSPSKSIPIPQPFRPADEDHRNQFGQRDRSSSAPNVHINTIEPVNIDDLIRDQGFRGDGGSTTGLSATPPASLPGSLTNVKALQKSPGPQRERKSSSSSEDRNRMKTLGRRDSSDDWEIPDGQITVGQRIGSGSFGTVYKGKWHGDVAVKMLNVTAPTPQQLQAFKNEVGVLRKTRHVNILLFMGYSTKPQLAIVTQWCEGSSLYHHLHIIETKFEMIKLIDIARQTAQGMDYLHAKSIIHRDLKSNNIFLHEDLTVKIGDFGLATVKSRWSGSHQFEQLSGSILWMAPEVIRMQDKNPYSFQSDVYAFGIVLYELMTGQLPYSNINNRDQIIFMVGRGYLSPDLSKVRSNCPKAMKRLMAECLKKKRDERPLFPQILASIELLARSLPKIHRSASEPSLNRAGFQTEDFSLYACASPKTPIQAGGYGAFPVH
Experimental: as §5, §6

ABL1(T315I) = ABL1(T315I) (Homo sapiens (Human), UniProt P00519, T315I); experiment: KINOMEscan competition binding assay
Experimental: as §5, §6

LOK = LOK (Homo sapiens (Human), UniProt O94804); experiment: KINOMEscan competition binding assay
Experimental: as §5, §6

VEGFR2 = VEGFR2 (Homo sapiens (Human), UniProt P35968); experiment: KINOMEscan competition binding assay
Experimental: as §5, §6

ABL1 = ABL1 (Homo sapiens (Human), UniProt P00519); experiment: KINOMEscan competition binding assay
Experimental: as §5, §6

PDGFRA = PDGFRA (Homo sapiens (Human), UniProt P16234); experiment: KINOMEscan competition binding assay
Experimental: as §5, §6

FLT4 = FLT4 (Homo sapiens (Human), UniProt P35916); experiment: KINOMEscan competition binding assay
Chain of FLT4 (P35916 25-1363): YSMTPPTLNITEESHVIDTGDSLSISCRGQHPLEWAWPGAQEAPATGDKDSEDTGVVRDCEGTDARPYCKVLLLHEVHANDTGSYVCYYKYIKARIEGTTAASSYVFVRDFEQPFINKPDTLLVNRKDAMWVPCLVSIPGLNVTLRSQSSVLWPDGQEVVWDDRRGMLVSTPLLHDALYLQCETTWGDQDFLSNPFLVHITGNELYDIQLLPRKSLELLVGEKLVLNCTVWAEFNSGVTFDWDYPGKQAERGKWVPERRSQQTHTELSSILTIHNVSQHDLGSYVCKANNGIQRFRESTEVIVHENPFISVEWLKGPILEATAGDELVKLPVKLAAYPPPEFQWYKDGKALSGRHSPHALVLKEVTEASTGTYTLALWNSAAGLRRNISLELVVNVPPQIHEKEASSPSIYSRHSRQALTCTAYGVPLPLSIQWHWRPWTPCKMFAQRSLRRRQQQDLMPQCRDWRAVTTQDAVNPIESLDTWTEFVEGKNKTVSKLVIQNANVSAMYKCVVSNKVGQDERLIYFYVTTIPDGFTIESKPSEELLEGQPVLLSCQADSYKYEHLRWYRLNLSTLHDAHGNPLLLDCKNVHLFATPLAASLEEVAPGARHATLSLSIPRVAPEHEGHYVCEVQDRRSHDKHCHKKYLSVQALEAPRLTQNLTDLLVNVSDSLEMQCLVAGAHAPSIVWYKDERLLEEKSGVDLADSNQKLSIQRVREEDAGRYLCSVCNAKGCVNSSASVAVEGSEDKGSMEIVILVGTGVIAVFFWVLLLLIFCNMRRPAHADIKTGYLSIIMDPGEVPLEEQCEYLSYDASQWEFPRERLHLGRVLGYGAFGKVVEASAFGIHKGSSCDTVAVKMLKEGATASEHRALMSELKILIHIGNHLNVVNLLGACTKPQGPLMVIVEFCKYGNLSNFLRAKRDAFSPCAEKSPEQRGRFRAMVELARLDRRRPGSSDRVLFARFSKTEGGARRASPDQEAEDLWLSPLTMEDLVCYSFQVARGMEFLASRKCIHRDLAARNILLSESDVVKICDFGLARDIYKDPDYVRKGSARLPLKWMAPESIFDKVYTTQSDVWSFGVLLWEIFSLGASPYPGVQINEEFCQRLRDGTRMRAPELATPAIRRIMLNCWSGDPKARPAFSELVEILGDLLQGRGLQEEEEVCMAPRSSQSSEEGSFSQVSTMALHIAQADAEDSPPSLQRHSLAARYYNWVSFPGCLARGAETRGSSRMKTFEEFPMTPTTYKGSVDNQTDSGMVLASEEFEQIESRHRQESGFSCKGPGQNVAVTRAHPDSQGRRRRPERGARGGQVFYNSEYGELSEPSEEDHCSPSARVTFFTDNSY
Experimental: as §5, §6

RET = RET (Homo sapiens (Human), UniProt P07949); experiment: KINOMEscan competition binding assay
Chain of RET (P07949 29-1114): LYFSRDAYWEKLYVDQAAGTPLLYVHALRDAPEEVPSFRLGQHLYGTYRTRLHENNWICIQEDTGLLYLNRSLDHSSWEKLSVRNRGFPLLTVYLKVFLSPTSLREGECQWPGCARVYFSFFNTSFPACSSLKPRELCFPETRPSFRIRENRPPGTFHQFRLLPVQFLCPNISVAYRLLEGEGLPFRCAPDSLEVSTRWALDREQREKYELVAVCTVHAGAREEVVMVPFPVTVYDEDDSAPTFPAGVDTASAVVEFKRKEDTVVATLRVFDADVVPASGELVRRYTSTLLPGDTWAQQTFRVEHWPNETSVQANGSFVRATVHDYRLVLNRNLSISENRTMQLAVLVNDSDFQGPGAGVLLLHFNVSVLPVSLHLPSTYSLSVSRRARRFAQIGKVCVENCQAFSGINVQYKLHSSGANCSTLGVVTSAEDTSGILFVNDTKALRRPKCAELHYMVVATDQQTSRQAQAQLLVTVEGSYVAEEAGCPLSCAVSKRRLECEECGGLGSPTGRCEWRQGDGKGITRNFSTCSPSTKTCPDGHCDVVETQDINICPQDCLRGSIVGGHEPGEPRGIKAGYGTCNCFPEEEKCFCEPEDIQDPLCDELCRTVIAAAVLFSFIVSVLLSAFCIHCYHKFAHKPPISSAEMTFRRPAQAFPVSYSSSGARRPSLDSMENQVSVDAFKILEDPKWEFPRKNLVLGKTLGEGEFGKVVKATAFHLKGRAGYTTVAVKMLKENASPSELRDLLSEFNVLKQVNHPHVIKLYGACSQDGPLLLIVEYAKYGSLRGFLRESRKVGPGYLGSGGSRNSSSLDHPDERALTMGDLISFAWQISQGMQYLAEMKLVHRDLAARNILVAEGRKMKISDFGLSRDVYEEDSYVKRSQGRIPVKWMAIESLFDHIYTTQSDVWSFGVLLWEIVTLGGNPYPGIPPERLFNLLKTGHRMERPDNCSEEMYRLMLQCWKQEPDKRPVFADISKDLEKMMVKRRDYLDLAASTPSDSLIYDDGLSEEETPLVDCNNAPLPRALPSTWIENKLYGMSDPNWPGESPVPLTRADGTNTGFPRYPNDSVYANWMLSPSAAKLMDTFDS
Experimental: as §5, §6

CDK3 = CDK3 (Homo sapiens (Human), UniProt Q00526); experiment: KINOMEscan competition binding assay
Chain of CDK3 (Q00526 whole entry): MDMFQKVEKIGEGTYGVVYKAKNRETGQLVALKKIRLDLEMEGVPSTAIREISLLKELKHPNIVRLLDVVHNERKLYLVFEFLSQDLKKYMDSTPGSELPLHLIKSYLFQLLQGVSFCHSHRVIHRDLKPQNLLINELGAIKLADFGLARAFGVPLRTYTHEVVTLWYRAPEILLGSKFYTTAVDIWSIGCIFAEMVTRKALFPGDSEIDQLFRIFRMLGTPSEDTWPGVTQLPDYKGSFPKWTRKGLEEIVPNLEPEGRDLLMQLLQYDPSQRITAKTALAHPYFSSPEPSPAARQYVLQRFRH
Experimental: as §5, §6

CDK7 = CDK7 (Homo sapiens (Human), UniProt P50613); experiment: KINOMEscan competition binding assay
Chain of CDK7 (P50613 whole entry): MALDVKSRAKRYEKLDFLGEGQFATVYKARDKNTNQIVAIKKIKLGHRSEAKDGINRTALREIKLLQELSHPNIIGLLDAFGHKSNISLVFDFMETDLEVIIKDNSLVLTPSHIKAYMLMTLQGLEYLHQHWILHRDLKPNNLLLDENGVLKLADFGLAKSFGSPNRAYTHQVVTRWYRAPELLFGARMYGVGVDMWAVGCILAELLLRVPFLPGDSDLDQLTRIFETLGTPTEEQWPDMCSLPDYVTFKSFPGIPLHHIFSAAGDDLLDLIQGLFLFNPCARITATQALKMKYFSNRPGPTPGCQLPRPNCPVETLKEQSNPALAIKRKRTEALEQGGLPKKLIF
Experimental: as §5, §6

## CCN1CCN(Cc2ccc(NC(=O)c3cccc(-c4ccc5nc(NC(=O)C6CC6)sc5n4)c3)cc2C(F)(F)F)CC1 [Compound 2]
32D-BCR-Abl-T3151; 0.01 μM
  % G0G1: 36.96%
  % G2M: 22.64%
  % S: 40.40%
32D-BCR-Abl-T3151; 0.1 μM
  % G0G1: 46.35%
  % G2M: 10.54%
  % S: 43.11%
32D-BCR-Abl-T3151; 1.0 μM
  % G0G1: 73.13%
  % G2M: 9.29%
  % S: 17.59%
32D-BCR-Abl; 0.01 μM
  % G0G1: 42.62%
  % G2M: 9.56%
  % S: 47.82%
32D-BCR-Abl; 0.1 μM
  % G0G1: 76.52%
  % G2M: 3.78%
  % S: 19.71%
32D-BCR-Abl; 1.0 μM
  % G0G1: 77.44%
  % G2M: 9.07%
  % S: 13.49%
Ba/F3-Y253C
  IC50: < 100 nM
Ba/F3-kit-T6701; 0.01 μM
  % G0G1: 35.2%
  % G2M: 14.62%
  % S: 50.19%
Ba/F3-kit-T6701; 0.1 μM
  % G0G1: 29.01%
  % G2M: 16.54%
  % S: 54.45%
Ba/F3-kit-T6701; 1.0 μM
  % G0G1: 52.57%
  % G2M: 10.05%
  % S: 37.38%
Ba/F3-PDGFRα-T674M; 0.01 μM
  % G0G1: 40.81%
  % G2M: 7.41%
  % S: 51.78%
Ba/F3-PDGFRα-T674M; 0.1 μM
  % G0G1: 72.37%
  % G2M: 3.62%
  % S: 24.01%
Ba/F3-PDGFRα-T674M; 1.0 μM
  % G0G1: 79.92%
  % G2M: 2.46%
  % S: 17.61%
Ba/F3-PDGFRα-T674I; 0.01 μM
  % G0G1: 57.30%
  % G2M: 5.98%
  % S: 36.72%
Ba/F3-PDGFRα-T674I; 0.1 μM
  % G0G1: 64.90%
  % G2M: 5.82%
  % S: 29.28%
Ba/F3-PDGFRα-T674I; 1.0 μM
  % G0G1: 77.55%
  % G2M: 7.16%
  % S: 15.29%
Ba/F3-PDGFRβ-T681I
  IC50: > 1000 nM
HIPK1
  Kd: 34 nM
CDK2
  Kd: 840 nM
p38-gamma
  Kd: 100 nM
KIT
  Kd: 2.9 nM
FLT1
  Kd: 74 nM
BRAF
  Kd: 36 nM
ABL1(T315I)
  Kd: 1.2 nM
LOK
  Kd: 9.5 nM
VEGFR2
  Kd: 58 nM
ABL1
  Kd: 3.3 nM
PDGFRA
  Kd: 7.7 nM
FLT4
  Kd: 31 nM
RET
  Kd: 5.6 nM
CDK3
  Kd: 250 nM
CDK7
  Kd: 13 nM
